Drawing on US20100317850A1 (priority 2008, published 2010), this text covers IC50 for nine compounds.

For orientation: IC50 means the midpoint of a concentration-inhibition curve.

This experiment relates to Aβ42 production. The experiment can be described thus: Quantification of Aβ peptide in culture of neurons from rat fetus brain (Aβ ELISA). It is filed as cell-based. To be noted: Neuron, 72 h; rat primary neuronal culture (cerebral cortex, embryonic day 18 Wistar rats); medium collected three days after addition of the compound; Aβx-42 ELISA; read-out: Aβ42 production reducing effect IC50. The procedure, abridged:
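Primary cortical neurons from embryonic day 18 Wistar rats were cultured 4 days, then exposed to compound in Neurobasal/B27 without 2-ME, final DMSO ≤1%. After three days, medium was collected and Aβx-42 measured undiluted by sandwich ELISA.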
In general terms: An ELISA detects its analyte on a solid surface through an enzyme-linked reagent.

For `NC1=N[C@@]2(c3cc(NC(=O)c4cnc(OC(F)F)cn4)ccc3F)C[C@H](F)C[C@H]2CS1` (relative stereo) [Example 98, (+)-N-[3-((4aR*,6R*,7aS*)-2-amino-6-fluoro-4a,5,6,7-tetrahydro-4H-cyclopenta[d][1,3]thiazin-7a-yl)-4-fluorophenyl]-5-difluoromethoxypyrazine-2-carboxamide], the IC50 amounted to 1 nM.

With `CO[C@@H]1C[C@H]2CSC(N)=N[C@@]2(c2cc(NC(=O)c3ccc(Cl)cn3)ccc2F)C1` (relative stereo) [Example 99, (+)-N-[3-((4aR*,6R*,7aS*)-2-amino-6-methoxy-4a,5,6,7-tetrahydro-4H-cyclopenta[d][1,3]thiazin-7a-yl)-4-fluorophenyl]-5-chloropyridine-2-carboxamide], the IC50 was found to be 1 nM.

As to `CO[C@@H]1C[C@H]2CSC(N)=N[C@@]2(c2cc(NC(=O)c3ccc(OC(F)F)cn3)ccc2F)C1` (relative stereo) [Example 100, (+)-N-[3-((4aR*,6R*,7aS*)-2-amino-6-methoxy-4a,5,6,7-tetrahydro-4H-cyclopenta[d][1,3]thiazin-7a-yl)-4-fluorophenyl]-5-difluoromethoxypyridine-2-carb oxamide], the IC50 turned out to be 2 nM.

For `CCCCO[C@@H]1C[C@H]2CSC(N)=N[C@@]2(c2cc(NC(=O)c3ccc(C#N)cn3)ccc2F)C1` (relative stereo) [Example 108, (+)-N-[3-((4aR*,6R*,7aS*)-2-amino-6-butoxy-4a,5,6,7-tetrahydro-4H-cyclopenta[d][1,3]thiazin-7a-yl)-4-fluorophenyl]-5-cyanopyridine-2-carboxamide], the IC50 was determined as 1 nM.

For `CCCCO[C@H]1C[C@H]2CSC(N)=N[C@@]2(c2cc(NC(=O)c3ccc(C#N)cn3)ccc2F)C1` (relative stereo) [Example 109, (+)-N-[3-((4aR*,6S*,7aS*)-2-amino-6-butoxy-4a,5,6,7-tetrahydro-4H-cyclopenta[d][1,3]thiazin-7a-yl)-4-fluorophenyl]-5-cyanopyridine-2-carboxamide], the IC50 amounted to 1.8 nM.

As to `N#Cc1ccc(C(=O)Nc2ccc(F)c([C@]34C[C@@H](F)C[C@H]3CSC(N)=N4)c2)nc1` (relative stereo) [Example 110, (+)-N-[3-((4aR*,6S*,7aS*)-2-amino-6-fluoro-4a,5,6,7-tetrahydro-4H-cyclopenta[d][1,3]thiazin-7a-yl)-4-fluorophenyl]-5-cyanopyridine-2-carboxamide], the IC50 was found to be 5 nM.

`N#Cc1ccc(C(=O)Nc2ccc(F)c([C@]34CCO[C@H](CF)[C@H]3CSC(N)=N4)c2)nc1` (relative stereo) [Example 143, N-[3-((4aS*,5S*,8aS*)-2-amino-5-fluoromethyl-4a,5,7,8-tetrahydro-4H-6-oxa-3-thia-1-azanaphthalen-8a-yl)-4-fluorophenyl]-5-cyanopyridine-2-carboxamide]: the IC50 was 16 nM.

For `NC1=N[C@@]2(c3cc(NC(=O)c4cnc(OCF)cn4)ccc3F)CCO[C@H](CF)[C@H]2CS1` (relative stereo) [Example 144, N-[3-((4aS*,5S*,8aS*)-2-amino-5-fluoromethyl-4a,5,7,8-tetrahydro-4H-6-oxa-3-thia-1-azanaphthalen-8a-yl)-4-fluorophenyl]-5-fluoromethoxypyrazine-2-carboxamide], the 50% inhibitory concentration (IC50) came to 11 nM.

Consider `NC1=N[C@@]2(c3cc(NC(=O)c4cnc(OC(F)F)cn4)ccc3F)CCO[C@H](CF)[C@H]2CS1` (relative stereo) [Example 145, N-[3-((4aS*,5S*,8aS*)-2-amino-5-fluoromethyl-4a,5,7,8-tetrahydro-4H-6-oxa-3-thia-1-azanaphthalen-8a-yl)-4-fluorophenyl]-5-difluoromethoxypyrazine-2-carboxamide], for which the IC50 was determined as 3 nM.
